Results reported in patent US11020352B2, “Systems and methods for the fabrication of tablets, including pharmaceutical tablets” (Massachusetts Institute of Technology, priority 2017, dated 2021).

What was measured:
[1] = Particle size of API and excipients; format: physicochemical; conditions: API/excipient powder
Description: Microscopy images showing the morphology of IBU and DIZ particles are shown in FIGS. 29A and 29B, respectively. IBU and DIZ both are fine particles with a d50 of 21.87 μm and 23.12 μm, respectively.

[2] = Bulk and flow properties of powders (FT4 Powder Rheometer); format: physicochemical; conditions: API/excipient powder

Compound | Particle size d10 [1] [μm] | Particle size d50 [1] [μm] | Particle size d90 [1] [μm] | Compressibility [2] [%] | Flow function coefficient (ffc) [2] | Bulk density [2] [g/mL]
CN1C(=O)CN=C(c2ccccc2)c2cc(Cl)ccc21 [Diazepam (DIZ), Diazepam, reference compound] | 5.74 | 23.12 | 110.75 | 32.73 | 2.78 | –
Magnesium stearate | 2.76 | 6.86 | 15.10 | 38.97 | 5.18 | 0.31
OC[C@H]1O[C@@H](O[C@H]2[C@H](O)[C@@H](O)C(O)O[C@@H]2CO)[C@H](O)[C@@H](O)[C@H]1O (some centres unmarked) [Anhydrous lactose] | 26.03 | 188.75 | 425.90 | 13.10 | 5.69 | 0.74
CC(C)Cc1ccc(C(C)C(=O)O)cc1 (centres unmarked) [Ibuprofen (IBU), Ibuprofen, reference compound] | 4.86 | 21.87 | 75.31 | 25.07 | 3.87 | 0.53
